Read-outs that look alike come from different tables or passages of the source.
Experiments:
OVCAR-4 (ovarian cancer) = experiment: NCI five-dose assay; type: cell-based; details: Homo sapiens, OVCAR-4, OVCAR-4, ovarian cancer
SF-539 (CNS cancer) = experiment: NCI five-dose assay; type: cell-based; details: Homo sapiens, SF-539, SF-539, CNS cancer
60 cancer cell lines [1] = experiment: cells; details: Homo sapiens
NCI-H522 (NSCL cancer) = experiment: NCI five-dose assay; type: cell-based; details: Homo sapiens
HL-60(TB) (leukemia) = experiment: NCI five-dose assay; type: cell-based; details: Homo sapiens, HL-60, HL-60(TB)
LOX IMVI (melanoma) = experiment: NCI five-dose assay; type: cell-based; details: Homo sapiens
DU-145 (prostate cancer) = experiment: NCI five-dose assay; type: cell-based; details: Homo sapiens, DU-145, DU-145, prostate cancer
ACHN (renal cancer) = experiment: NCI five-dose assay; type: cell-based; details: Homo sapiens
[2] = system: NCI/ADR-RES (breast cancer); experiment: NCI five-dose assay; type: cell-based; details: Homo sapiens
60 cancer cell lines [3] = details: over the cell line panel
NCI-H23 (NSCL cancer) = experiment: NCI five-dose assay; type: cell-based; details: Homo sapiens
SK-MEL-2 (melanoma) = experiment: NCI five-dose assay; type: cell-based; details: Homo sapiens, SK-MEL-2, SK-MEL-2, melanoma
M14 (melanoma) = experiment: NCI five-dose assay; type: cell-based; details: Homo sapiens
SF-268 (CNS cancer) = experiment: NCI five-dose assay; type: cell-based; details: Homo sapiens, SF-268, SF-268, CNS cancer
A549/ATCC (NSCL cancer) = experiment: NCI five-dose assay; type: cell-based; details: Homo sapiens
SNB-75 (CNS cancer) = experiment: NCI five-dose assay; type: cell-based; details: Homo sapiens, SNB-75, SNB-75, CNS cancer
EKVX (NSCL cancer) = experiment: NCI five-dose assay; type: cell-based; details: Homo sapiens
PC-3 (prostate cancer) = experiment: NCI five-dose assay; type: cell-based; details: Homo sapiens
SW-620 (colon cancer) = experiment: NCI five-dose assay; type: cell-based; details: Homo sapiens, SW-620, SW-620, colon cancer
U251 (CNS cancer) = experiment: NCI five-dose assay; type: cell-based; details: Homo sapiens, U-251, U251, CNS cancer
RPMI-8226 (leukemia) = experiment: NCI five-dose assay; type: cell-based; details: Homo sapiens, RPMI-8226, RPMI-8226, leukemia
SK-MEL-28 (melanoma) = experiment: NCI five-dose assay; type: cell-based; details: Homo sapiens, SK-MEL-28, SK-MEL-28, melanoma
IGROV-1 (ovarian cancer) = experiment: NCI five-dose assay; type: cell-based; details: Homo sapiens
OVCAR-8 (ovarian cancer) = experiment: NCI five-dose assay; type: cell-based; details: Homo sapiens, OVCAR-8, OVCAR-8, ovarian cancer
MOLT-4 (leukemia) = experiment: NCI five-dose assay; type: cell-based; details: Homo sapiens, MOLT-4, MOLT-4, leukemia
HCT-116 (colon cancer) = experiment: NCI five-dose assay; type: cell-based; details: Homo sapiens, HCT-116, HCT-116, colon cancer
SF-295 (CNS cancer) = experiment: NCI five-dose assay; type: cell-based; details: Homo sapiens, SF-295, SF-295, CNS cancer
[4] = system: MDA-MB-435 (breast cancer); experiment: NCI five-dose assay; type: cell-based; details: Homo sapiens, MDA-MB-435, MDA-MB-435, breast cancer
T-47D (breast cancer) = experiment: NCI five-dose assay; type: cell-based; details: Homo sapiens, T47D
BT-549 (breast cancer) = experiment: NCI five-dose assay; type: cell-based; details: Homo sapiens, BT-549, BT-549, breast cancer
SN12C (renal cancer) = experiment: NCI five-dose assay; type: cell-based; details: Homo sapiens
[5] = system: MDA-MB-231/ATCC (breast cancer); experiment: NCI five-dose assay; type: cell-based; details: Homo sapiens, MDA-MB-231, MDA-MB-231/ATCC
HCT-15 (colon cancer) = experiment: NCI five-dose assay; type: cell-based; details: Homo sapiens, HCT-15, HCT-15, colon cancer
A498 (renal cancer) = experiment: NCI five-dose assay; type: cell-based; details: Homo sapiens
K-562 (leukemia) = experiment: NCI five-dose assay; type: cell-based; details: Homo sapiens, K562, K-562, leukemia
HOP-92 (NSCL cancer) = experiment: NCI five-dose assay; type: cell-based; details: Homo sapiens, HOP-92, HOP-92, NSCL cancer

## COc1cc(C2C3=C(Sc4[nH]c(=O)sc42)C(=O)c2ccccc2C3=O)ccc1OCc1ccccc1 (stereo not drawn) [Compound 4e, 11-[4-(Benzyloxy)-3-methoxyphenyl]-3,11-dihydro-2H-benzo[6,7]thiochromeno[2,3-d]-[1,3]thiazole-2,5,10-trione]
OVCAR-4 (ovarian cancer)
  GI50: 4.48 µM
SF-539 (CNS cancer)
  GI50: 16.7 µM
60 cancer cell lines [1]; read-out: GI50 MG_MID, over the cell line panel
  GI50: 12 µM
60 cancer cell lines [1]; read-out: GI50 Range (min – max), over the cell line panel
  GI50: 2.62 to 32.6 µM
60 cancer cell lines [1]; read-out: LC50 MG_MID, over the cell line panel
  CC50: 85.1 µM
60 cancer cell lines [1]; read-out: LC50 Range (min – max), over the cell line panel
  CC50: 26.3 to 98.7 µM
NCI-H522 (NSCL cancer)
  GI50: 15.9 µM
HL-60(TB) (leukemia)
  GI50: 15.2 µM
LOX IMVI (melanoma)
  GI50: 8.03 µM
DU-145 (prostate cancer)
  GI50: 4.19 µM
ACHN (renal cancer)
  GI50: 17.8 µM
[2]
  GI50: 22.7 µM
60 cancer cell lines [3]
  TGI MG_MID: 40.74 µM
NCI-H23 (NSCL cancer)
  GI50: 3.99 µM
SK-MEL-2 (melanoma)
  GI50: 20.3 µM
M14 (melanoma)
  GI50: 6.9 µM
SF-268 (CNS cancer)
  GI50: 14.1 µM
A549/ATCC (NSCL cancer)
  GI50: 3.16 µM
SNB-75 (CNS cancer)
  GI50: 7.76 µM
EKVX (NSCL cancer)
  GI50: 16.3 µM
PC-3 (prostate cancer)
  GI50: 17.7 µM
SW-620 (colon cancer)
  GI50: 22.7 µM
U251 (CNS cancer)
  GI50: 15.1 µM
RPMI-8226 (leukemia)
  GI50: 14.5 µM
SK-MEL-28 (melanoma)
  GI50: 12.2 µM
IGROV-1 (ovarian cancer)
  GI50: 15.4 µM
OVCAR-8 (ovarian cancer)
  GI50: 13.9 µM
MOLT-4 (leukemia)
  GI50: 17.3 µM
HCT-116 (colon cancer)
  GI50: 15.6 µM
SF-295 (CNS cancer)
  GI50: 5.78 µM
[4]
  GI50: 12 µM
T-47D (breast cancer)
  GI50: 16.1 µM
BT-549 (breast cancer)
  GI50: 13.4 µM
SN12C (renal cancer)
  GI50: 15.3 µM
[5]
  GI50: 7.81 µM
HCT-15 (colon cancer)
  GI50: 11.5 µM
A498 (renal cancer)
  GI50: 20.5 µM
K-562 (leukemia)
  GI50: 19.4 µM
HOP-92 (NSCL cancer)
  GI50: 11.5 µM

From article PMC3700073, “Synthesis and Biological Activity of New Thiopyrano[2,3-d]thiazoles Containing a Naphthoquinone Moiety” (Scientia Pharmaceutica, 2013)
